Results as given in PubChem BioAssay AID1963835 (Molecular Pharmacology Branch, DTP, NCI, 2024).

System: 699152-130-R-J1-PDC complex spheroid viability
Assay: Anticancer human tumor 699152-130-R-J1-PDC patient-derived pancreatic carcinoma cell line growth inhibition [POLQ]
Details: for IC50: curve of first compound; for viability, T/C: stronger effect = lower value
In short: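 PDC + HUVEC + MSC complex spheroids; POLQ inhibitors ± partner drugs; top conc. at/near clinical Cmax, else 10 microM (SN-38 1 microM), half-log dilutions; 37 degrees C, 5% CO2.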

[1] = second compound 0.0316 µM, first compound 0.0316 µM
[2] = second compound 0.0316 µM, first compound 0.1 µM
[3] = second compound 0.0316 µM, first compound 0.316 µM
[4] = second compound 0.0316 µM, first compound 1 µM
[5] = second compound 0.0316 µM, first compound 3.16 µM
[6] = second compound 0.0316 µM, first compound 10 µM
[7] = second compound 0.1 µM, first compound 0.0316 µM
[8] = second compound 0.1 µM, first compound 0.1 µM
[9] = second compound 0.1 µM, first compound 0.316 µM
[10] = second compound 0.1 µM, first compound 1 µM
[11] = second compound 0.1 µM, first compound 3.16 µM
[12] = second compound 0.1 µM, first compound 10 µM
[13] = second compound 0.316 µM, first compound 0.0316 µM
[14] = second compound 0.316 µM, first compound 0.1 µM
[15] = second compound 0.316 µM, first compound 0.316 µM
[16] = second compound 0.316 µM, first compound 1 µM
[17] = second compound 0.316 µM, first compound 3.16 µM
[18] = second compound 0.316 µM, first compound 10 µM
[19] = second compound 1 µM, first compound 0.0316 µM
[20] = second compound 1 µM, first compound 0.1 µM
[21] = second compound 1 µM, first compound 0.316 µM
[22] = second compound 1 µM, first compound 1 µM
[23] = second compound 1 µM, first compound 3.16 µM
[24] = second compound 1 µM, first compound 10 µM
[25] = second compound 3.16 µM, first compound 0.0316 µM
[26] = second compound 3.16 µM, first compound 0.1 µM
[27] = second compound 3.16 µM, first compound 0.316 µM
[28] = second compound 3.16 µM, first compound 1 µM
[29] = second compound 3.16 µM, first compound 3.16 µM
[30] = second compound 3.16 µM, first compound 10 µM
[31] = second compound 10 µM, first compound 0.0316 µM
[32] = second compound 10 µM, first compound 0.1 µM
[33] = second compound 10 µM, first compound 0.316 µM
[34] = second compound 10 µM, first compound 1 µM
[35] = second compound 10 µM, first compound 3.16 µM
[36] = second compound 10 µM, first compound 10 µM
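Note: spheroids exposed to agents for 7 days before viability reading.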
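Throughout, for viability, T/C: percent of DMSO vehicle control viability so 100% = vehicle and 0% = no viable signal.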

Structure (SMILES): O=c1[nH]cc(F)c(=O)[nH]1 + Cc1cccc(N(C)C(=O)C2C(O)CCN2c2nc(C)cc(C(F)(F)F)c2C#N)c1
- IC50 (second compound 0.0316 µM): > 10 µM
- IC50 (second compound 0.1 µM): > 10 µM
- IC50 (second compound 0.316 µM): > 10 µM
- IC50 (second compound 1 µM): > 10 µM
- IC50 (second compound 3.16 µM): > 10 µM
- IC50 (second compound 10 µM): > 10 µM
- viability, T/C [1]: 105%
- viability, T/C [2]: 109%
- viability, T/C [3]: 107%
- viability, T/C [4]: 113%
- viability, T/C [5]: 102%
- viability, T/C [6]: 74.1%
- viability, T/C [7]: 110%
- viability, T/C [8]: 113%
- viability, T/C [9]: 99.2%
- viability, T/C [10]: 107%
- viability, T/C [11]: 100%
- viability, T/C [12]: 82.6%
- viability, T/C [13]: 120%
- viability, T/C [14]: 122%
- viability, T/C [15]: 106%
- viability, T/C [16]: 107%
- viability, T/C [17]: 120%
- viability, T/C [18]: 79.9%
- viability, T/C [19]: 108%
- viability, T/C [20]: 104%
- viability, T/C [21]: 104%
- viability, T/C [22]: 111%
- viability, T/C [23]: 92.1%
- viability, T/C [24]: 74.7%
- viability, T/C [25]: 113%
- viability, T/C [26]: 116%
- viability, T/C [27]: 108%
- viability, T/C [28]: 104%
- viability, T/C [29]: 117%
- viability, T/C [30]: 87.3%
- viability, T/C [31]: 103%
- viability, T/C [32]: 102%
- viability, T/C [33]: 104%
- viability, T/C [34]: 92.8%
- viability, T/C [35]: 91.3%
- viability, T/C [36]: 84.6%

Structure (SMILES): CNCc1ccc(-c2[nH]c3cc(F)cc4c3c2CCNC4=O)cc1 + COC1C(OC(N)=O)C(O)C(Oc2ccc3c(O)c(NC(=O)c4ccc(O)c(CC=C(C)C)c4)c(=O)oc3c2C)OC1(C)C
- IC50 (second compound 0.0316 µM): > 10 µM
- IC50 (second compound 0.1 µM): > 10 µM
- IC50 (second compound 0.316 µM): > 10 µM
- IC50 (second compound 1 µM): > 10 µM
- IC50 (second compound 3.16 µM): > 10 µM
- IC50 (second compound 10 µM): > 10 µM
- viability, T/C [1]: 94.8%
- viability, T/C [2]: 95.1%
- viability, T/C [3]: 101%
- viability, T/C [4]: 106%
- viability, T/C [5]: 126%
- viability, T/C [6]: 123%
- viability, T/C [7]: 96.4%
- viability, T/C [8]: 95.6%
- viability, T/C [9]: 92.9%
- viability, T/C [10]: 120%
- viability, T/C [11]: 115%
- viability, T/C [12]: 130%
- viability, T/C [13]: 102%
- viability, T/C [14]: 103%
- viability, T/C [15]: 106%
- viability, T/C [16]: 97.8%
- viability, T/C [17]: 118%
- viability, T/C [18]: 125%
- viability, T/C [19]: 101%
- viability, T/C [20]: 94.9%
- viability, T/C [21]: 107%
- viability, T/C [22]: 98%
- viability, T/C [23]: 113%
- viability, T/C [24]: 114%
- viability, T/C [25]: 103%
- viability, T/C [26]: 105%
- viability, T/C [27]: 93.8%
- viability, T/C [28]: 98.2%
- viability, T/C [29]: 133%
- viability, T/C [30]: 93.6%
- viability, T/C [31]: 102%
- viability, T/C [32]: 88.3%
- viability, T/C [33]: 107%
- viability, T/C [34]: 101%
- viability, T/C [35]: 125%
- viability, T/C [36]: 108%

Structure (SMILES): CCCS(=O)(=O)Nc1ccc(F)c(C(=O)c2c[nH]c3ncc(-c4ccc(Cl)cc4)cc23)c1F + Cc1cccc(N(C)C(=O)C2C(O)CCN2c2nc(C)cc(C(F)(F)F)c2C#N)c1
- IC50 (second compound 0.0316 µM): 8.18 µM
- IC50 (second compound 0.1 µM): 8.55 µM
- IC50 (second compound 0.316 µM): 8.18 µM
- IC50 (second compound 1 µM): 8.6 µM
- IC50 (second compound 3.16 µM): 8.56 µM
- IC50 (second compound 10 µM): 8.17 µM
- viability, T/C [1]: 110%
- viability, T/C [2]: 101%
- viability, T/C [3]: 120%
- viability, T/C [4]: 162%
- viability, T/C [5]: 175%
- viability, T/C [6]: 32.2%
- viability, T/C [7]: 105%
- viability, T/C [8]: 103%
- viability, T/C [9]: 126%
- viability, T/C [10]: 143%
- viability, T/C [11]: 199%
- viability, T/C [12]: 36.5%
- viability, T/C [13]: 103%
- viability, T/C [14]: 99.5%
- viability, T/C [15]: 125%
- viability, T/C [16]: 159%
- viability, T/C [17]: 195%
- viability, T/C [18]: 31.6%
- viability, T/C [19]: 109%
- viability, T/C [20]: 112%
- viability, T/C [21]: 141%
- viability, T/C [22]: 152%
- viability, T/C [23]: 172%
- viability, T/C [24]: 36.6%
- viability, T/C [25]: 124%
- viability, T/C [26]: 112%
- viability, T/C [27]: 118%
- viability, T/C [28]: 140%
- viability, T/C [29]: 181%
- viability, T/C [30]: 36.5%
- viability, T/C [31]: 117%
- viability, T/C [32]: 103%
- viability, T/C [33]: 134%
- viability, T/C [34]: 146%
- viability, T/C [35]: 175%
- viability, T/C [36]: 31.7%

Structure (SMILES): COc1cc(C2c3cc4c(cc3C(OC3OC5COC(C)OC5C(O)C3O)C3COC(=O)C23)OCO4)cc(OC)c1O (stereo not drawn) + COC1C(OC(N)=O)C(O)C(Oc2ccc3c(O)c(NC(=O)c4ccc(O)c(CC=C(C)C)c4)c(=O)oc3c2C)OC1(C)C
- IC50 (second compound 0.0316 µM): 4.01 µM
- IC50 (second compound 0.1 µM): 3.17 µM
- IC50 (second compound 0.316 µM): 4.05 µM
- IC50 (second compound 1 µM): 2.51 µM
- IC50 (second compound 3.16 µM): 4.61 µM
- IC50 (second compound 10 µM): 3.04 µM
- viability, T/C [1]: 92.1%
- viability, T/C [2]: 99.5%
- viability, T/C [3]: 66.4%
- viability, T/C [4]: 72.5%
- viability, T/C [5]: 51.3%
- viability, T/C [6]: 40.2%
- viability, T/C [7]: 83.9%
- viability, T/C [8]: 94%
- viability, T/C [9]: 71.1%
- viability, T/C [10]: 61.1%
- viability, T/C [11]: 54.3%
- viability, T/C [12]: 38.2%
- viability, T/C [13]: 99.5%
- viability, T/C [14]: 80.4%
- viability, T/C [15]: 74.4%
- viability, T/C [16]: 70.8%
- viability, T/C [17]: 46.8%
- viability, T/C [18]: 42.7%
- viability, T/C [19]: 94.5%
- viability, T/C [20]: 87.8%
- viability, T/C [21]: 75%
- viability, T/C [22]: 60.4%
- viability, T/C [23]: 47.7%
- viability, T/C [24]: 38.4%
- viability, T/C [25]: 93%
- viability, T/C [26]: 86.2%
- viability, T/C [27]: 75.3%
- viability, T/C [28]: 66.7%
- viability, T/C [29]: 49.7%
- viability, T/C [30]: 46%
- viability, T/C [31]: 87.3%
- viability, T/C [32]: 85.6%
- viability, T/C [33]: 78.5%
- viability, T/C [34]: 62.6%
- viability, T/C [35]: 50.8%
- viability, T/C [36]: 40.6%
